In US20190269629A1, “COMPOSITIONS AND METHODS FOR INHIBITING GROWTH OF ACSL4-OVEREXPRESSING TUMORS” (CONSEJO NACIONAL DE INVESTIGACIONES CIENTÍFICAS Y TÉCNICAS …, priority 2016, published 2019):

Assays:
Type in all cases: cell-based, human
[1] = system: MDA-MB-231 cells; assay: BrdU cell proliferation assay, MDA-MB-231 cells; conditions: for inhibition of MDA-MB-231 cell proliferation (BrdU): Triacsin C 0.01-0.10 M and/or doxorubicin 0.025 μM or paclitaxel 0.1 μM, 96 h; for dosage used in combination therapy relative to the minimum dose that produces a significant inhibition when administered alone: Triacsin C: in cell culture; for dosage used in combination therapy relative to the minimum dose that produces a significant inhibition when administered alone / amount used in combination relative to the maximum effective dose when applied alone (same inhibitory effect): combination therapy
Description: Subsequently, cell proliferation was measured by BrdU incorporation assay. Data arc presented as inhibition of cell proliferation compared to control cells. White bars indicate single inhibitor treatment while grey bars indicate combined inhibitor treatment.
MDA-MB-231 cells were plated as described in FIG. 3 and then incubated with Triacsin C ([…]) and/or A. doxorubicin (0.025 μM), B. paclitaxel (0.1 μM) for 96 h. Subsequently, cell proliferation was measured by BrdU incorporation assay. Data are presented as inhibition of cell proliferation compared to control cells. White bars indicate single inhibitor treatment while black bars indicate combined inhibitor treatment.
(§1) Cell proliferation assays were measured by the MTT and 5-bromo-2′-deoxyuridine (BrdU) incorporation as previously described (Maloberti P. M. et al., 2010).
(§2) MBA-MB-231 cells were plated at a density of 4000 cells/well in 96-well plates with 10% FBS-supplemented D-MEM medium and allowed to adhere overnight at 37° C. in a humidified, 5% CO2 atmosphere. The medium was then changed to serum-free medium. […] Subsequently, cell proliferation was measured by the bromo-deoxvuridine (BrdU) incorporation assay.
as §2, with “MDA-MB-231” for “MBA-MB-231”, “bromo-deoxyuridine” for “bromo-deoxvuridine”
(§3) MBA-MB-231 cells were plated at a density of 4000 cells/well in 96-well plates with 10% FBS-supplemented D-MEM medium and allowed to adhere overnight at 37° C. in a humidified, 5% CO2 atmosphere. The medium was then changed to serum-free medium. After 24 h, the cells were switched to 10% FBS-supplemented D-MEM medium and incubated with doxorubicin and/or Triacsin C for 96 h. Subsequently, cell proliferation was measured by the bromo-deoxyuridine (BrdU) incorporation assay.
as §3, with “MDA-MB-231 cells” for “MBA-MB-231 cells”, “C. m” for “C. in”, “24 h.” for “24 h,”, “with paclitaxel” for “with doxorubicin”, “the bromo-deoxvuridine” for “the bromo-deoxyuridine”

[2] = system: ABCC8; assay: Western blot of ABCC8 in MDA-MB-231 cells after ACSL4 inhibition; conditions: Triacsin C 1 uM or rosiglitazone 100 uM, 48 h
Description: (§4) A) MDA-MB-231 cells were transfected with the pSUPER.retro plasmid containing a shRNA targeted to ACSL4 (shRNA-ACSL4) or an empty plasmid (mock) as previously described ((Maloberti P. M. et al., 2010, supra).
(§5) One month post selection, whole cell extracts were obtained and analyzed by Western blot as previously described using the indicated antibodies. […] Forty-eight hours post-treatment, whole cell extracts were obtained and analyzed by Western blot as previously described using the indicated antibodies. Representative blots (upper panels) and integrated optical density of protein levels (lower panels) quantified and normalized with the corresponding 1-tubulin signal are shown.
(§6) J Biol Chem 2001; 276(27):24667-24673).
(§7) MDA-MB-231 cells were seeded the day before and grown up to 80% confluence. […] The empty vector was used as control. Transfection efficiency was estimated by counting fluorescent cells transfected with the pRc/CMVi plasmid containing the enhanced form of green fluorescent protein [Maloberti et al.; 2010].

[3] = system: ABCG2; assay: Western blot of ABCG2 in MDA-MB-231 cells after ACSL4 inhibition; conditions: Triacsin C 1 uM or rosiglitazone 100 uM, 48 h
Description: as §4, §5, §6, §7

[4] = system: ABCC4; assay: Western blot of ABCC4 in MDA-MB-231 cells after ACSL4 inhibition; conditions: Triacsin C 1 uM or rosiglitazone 100 uM, 48 h
Description: as §4, §5, §6, §7

[5] = system: MCF-7 Tet-Off/ACSL4 cells; assay: BrdU cell proliferation assay, MCF-7 Tet-Off/ACSL4 cells
Description: (§8) MCF-7 Tet-Off empty vector and MCF-7 Tet-Off/ACSL4 cells were plated at a density of 4000 cells/well in 96-well plates with 10% FBS-supplemented D-MEM and allowed to adhere overnight at 37° C. in a humidified 5% CO2 atmosphere. The medium was then changed to serum-free medium. After 24 h, the cells were switched to 10% FBS-supplemented D-MEM with A. doxorubicin (0.025-0.100 μM) and B. paclitaxel (0.1-0.5 μM), and with doxycycline (0.025 μM) where indicated. After 48 h, cell proliferation was measured by BrdU incorporation assay. Data are presented as inhibition of cell proliferation compared to control cells.
as §1
Separate experiments were carried out for each one of the tested chemotherapeutic agents. Each chemotherapeutic agent was first tested alone at the concentrations used, and then in combination with doxycycline, for each of the cell groups: MCF-7 Tet-Off/ACSL4 cells, MCF-7 Tet-Off empty vector cells and doxycycline-treated MCF-7 Tet-Off/ACSL4 cells, the latter is used to specifically override ACSL4 expression.
as §3, with “MCF-7 Tet-Off empty vector and MCF-7 Tet-Off/ACSL4” for “MBA-MB-231”, “at varying (sub-therapeutically effective or non-effective per se) concentrations (0.025, 0.050, 0.100 μM)” for “and/or Triacsin C”
as §3, with “MCF-7 Tet-Off empty vector and MCF-7 Tet-Off/ACSL4” for “MBA-MB-231”, “paclitaxel at varying (sub-therapeutically effective or non-effective per se) concentrations (0.1, 0.2, 0.5 μM)” for “doxorubicin and/or Triacsin C”

[6] = system: MCF-7 Tet-Off empty vector cells; assay: BrdU cell proliferation assay, MCF-7 Tet-Off empty vector cells; conditions: doxorubicin 0.025, 0.050, 0.100 μM or paclitaxel 0.1, 0.2, 0.5 μM, 96 h
Description: as §8, §1
Separate experiments were carried out for each one of the tested chemotherapeutic agents. […]
MCF-7 Tet-Off empty vector and MCF-7 Tet-Off/ACSL4 cells were plated at a density of 4000 cells/well in 96-well plates with 10% FBS-supplemented D-MEM medium and allowed to adhere overnight at 37° C. in a humidified, 5% CO2 atmosphere. […] Subsequently, cell proliferation was measured by the bromo-deoxyuridine (BrdU) incorporation assay. […]

[7] = system: MDA-MB-231 cells; assay: BrdU cell proliferation assay, MDA-MB-231 cells; conditions: rosiglitazone 20 μM and/or doxorubicin 0.025 μM or paclitaxel 0.5 μM; 96 h
[8] = MCF-7 Tet-Off/ACSL4 cells, doxorubicin 0.025, 0.050, 0.100 μM or paclitaxel 0.1, 0.2, 0.5 μM, 96 h
[9] = doxycycline-treated MCF-7 Tet-Off/ACSL4 cells, doxorubicin 0.025-0.100 μM or paclitaxel 0.1-0.5 μM

Row | SMILES | inhibition of MDA-MB-231 cell proliferation (BrdU) [1] | dosage used in combination therapy relative to the minimum dose that produces a significant inhibition when administered alone [1] | ABCC8 protein levels [2] | ABCG2 protein levels [3] | ABCC4 protein levels [4] | inhibition of cell proliferation (BrdU) [5, 8] | inhibition of cell proliferation (BrdU) [5, 9] | amount used in combination relative to the maximum effective dose when applied alone (same inhibitory effect) [1] [times lower] | inhibition of cell proliferation (BrdU) [6] | inhibition of MDA-MB-231 cell proliferation (BrdU) [7]
1 | CCC/C=C/C/C=C/C=C/C=NNN=O [Triacsin C, N-(((2E,4E,7E)-undeca-2,4,7-trienylidene)amino)nitrous amide] | very little effect | 5 times lower | markedly decreased | markedly decreased | markedly decreased | – | – | – | – | –
2 | COc1cccc2c1C(=O)c1c(O)c3c(c(O)c1C2=O)C[C@@](O)(C(=O)CO)C[C@@H]3O[C@H]1C[C@H](N)[C@H](O)[C@H](C)O1 [doxorubicin] | very little effect | 2.6 times lower | – | – | – | very little or no effect | significantly increased inhibition of cell proliferation | 12 | inhibited proliferation | very little effect
3 | CC(=O)O[C@H]1C(=O)[C@@]2(C)[C@H]([C@H](OC(=O)c3ccccc3)[C@]3(O)C[C@H](OC(=O)[C@H](O)[C@@H](NC(=O)c4ccccc4)c4ccccc4)C(C)=C1C3(C)C)[C@]1(OC(C)=O)CO[C@@H]1C[C@@H]2O [paclitaxel] | very little effect | half | – | – | – | little or no effect | significantly increased inhibition of cell proliferation | 5 | inhibited proliferation | very little effect
